Experimental data as given in ChEMBL document CHEMBL1201862, “PubChem BioAssay data set” (2004).
Active and inactive are the calls of the source. Rule as the data show it, for most assays here: actives have a measured EC50 and inactives only a lower limit.

Legend:
[1] = biological target: 26S proteasome non-ATPase regulatory subunit 14 (Homo sapiens, UniProt O00487); assay: inhibition of proteasome subunit RPN11 – biochemical, fluorescence polarization, uHTS hits, confirmation (AID 602368); type: functional
Chain of 26S proteasome non-ATPase regulatory subunit 14 (O00487 whole entry): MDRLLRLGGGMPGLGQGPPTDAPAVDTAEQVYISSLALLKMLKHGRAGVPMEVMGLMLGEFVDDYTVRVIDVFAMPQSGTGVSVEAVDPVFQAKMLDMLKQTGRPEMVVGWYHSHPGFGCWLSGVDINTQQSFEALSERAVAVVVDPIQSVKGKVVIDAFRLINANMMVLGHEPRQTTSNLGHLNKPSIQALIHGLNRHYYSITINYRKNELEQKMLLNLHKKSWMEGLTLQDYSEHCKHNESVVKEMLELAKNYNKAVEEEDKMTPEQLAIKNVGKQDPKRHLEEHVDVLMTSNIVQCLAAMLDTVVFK

[2] = biological target: 72 kDa type IV collagenase (Homo sapiens, UniProt P08253); assay: Dose Response validation of uHTS RPN11 inhibitor hits using a MMP-2 Fluorescence assay.; type: functional
Chain of 72 kDa type IV collagenase (P08253 whole entry): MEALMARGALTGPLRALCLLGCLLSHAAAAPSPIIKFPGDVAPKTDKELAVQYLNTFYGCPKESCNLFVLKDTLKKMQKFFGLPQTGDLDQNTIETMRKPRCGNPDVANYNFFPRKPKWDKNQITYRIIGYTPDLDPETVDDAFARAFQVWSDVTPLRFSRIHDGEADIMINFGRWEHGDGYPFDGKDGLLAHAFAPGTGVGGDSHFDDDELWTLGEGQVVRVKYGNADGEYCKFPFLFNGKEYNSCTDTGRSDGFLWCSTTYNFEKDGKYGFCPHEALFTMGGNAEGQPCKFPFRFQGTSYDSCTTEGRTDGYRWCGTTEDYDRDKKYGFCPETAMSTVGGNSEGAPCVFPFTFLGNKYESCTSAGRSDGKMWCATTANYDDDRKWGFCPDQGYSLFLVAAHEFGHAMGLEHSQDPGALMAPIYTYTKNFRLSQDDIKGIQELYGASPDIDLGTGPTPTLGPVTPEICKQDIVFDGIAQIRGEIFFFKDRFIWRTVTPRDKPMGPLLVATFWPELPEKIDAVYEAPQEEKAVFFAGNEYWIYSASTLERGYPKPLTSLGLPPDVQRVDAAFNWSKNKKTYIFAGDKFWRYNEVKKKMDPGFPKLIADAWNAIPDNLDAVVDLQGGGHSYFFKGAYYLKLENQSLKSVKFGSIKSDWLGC

Prothrombin = Prothrombin (Bos taurus, UniProt P00735); assay: thrombin protease inhibitors – biochemical, fluorescence polarization, uHTS hits, dose response (AID 602369); type: functional
[3] = biological target: T1, V-type proton ATPase subunit c' (Saccharomyces cerevisiae S288c, UniProt P32842); assay: Dose Response with BCECF Assay for V-ATPase inhibitors that increase vacuolar pH, Powder Set 1.; type: functional; conditions: read-out: EC50_MICROM
T1 sequence (P32842 whole entry): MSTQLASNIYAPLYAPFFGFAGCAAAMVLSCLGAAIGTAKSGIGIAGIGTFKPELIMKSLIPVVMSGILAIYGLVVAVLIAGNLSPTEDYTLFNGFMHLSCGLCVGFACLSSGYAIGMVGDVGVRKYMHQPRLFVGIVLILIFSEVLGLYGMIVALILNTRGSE

[4] = biological target: T1, V-type proton ATPase subunit c'; assay: Dose Response of Small Molecules that Regulate V-ATPase Proton Transport in Yeast using pHLuorin, Powder Set1.; type: functional; conditions: read-out: EC50_MICROM
[5] = biological target: Sphingosine 1-phosphate receptor 2 (Homo sapiens, UniProt O95136); assay: Late-stage fluorescence-based dose-response cell-based counterscreen assay to identify agonists of the Sphingosine 1-Phosphate Receptor 3 (S1P3): Sphingosine 1-Phosphate Receptor 2 (S1P2) agonist assay.; type: functional
Chain of Sphingosine 1-phosphate receptor 2 (O95136 whole entry): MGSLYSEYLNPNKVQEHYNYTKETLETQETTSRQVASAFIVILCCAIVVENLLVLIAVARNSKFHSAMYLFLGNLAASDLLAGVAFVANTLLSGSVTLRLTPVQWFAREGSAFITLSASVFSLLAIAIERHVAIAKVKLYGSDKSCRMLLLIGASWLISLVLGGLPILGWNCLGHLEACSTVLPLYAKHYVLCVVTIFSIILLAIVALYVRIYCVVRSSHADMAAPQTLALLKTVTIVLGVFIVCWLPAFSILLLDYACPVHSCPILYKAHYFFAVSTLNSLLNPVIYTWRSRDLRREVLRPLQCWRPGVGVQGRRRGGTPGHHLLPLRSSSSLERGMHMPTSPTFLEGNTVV

[6] = biological target: T2, Sphingosine 1-phosphate receptor 4 (Homo sapiens, UniProt O95977); assay: Late-stage fluorescence-based dose-response cell-based counterscreen assay to identify agonists of the Sphingosine 1-Phosphate Receptor 3 (S1P3): Sphingosine 1-Phosphate Receptor 4 (S1P4) agonist assay.; type: functional
T2 sequence (O95977 whole entry): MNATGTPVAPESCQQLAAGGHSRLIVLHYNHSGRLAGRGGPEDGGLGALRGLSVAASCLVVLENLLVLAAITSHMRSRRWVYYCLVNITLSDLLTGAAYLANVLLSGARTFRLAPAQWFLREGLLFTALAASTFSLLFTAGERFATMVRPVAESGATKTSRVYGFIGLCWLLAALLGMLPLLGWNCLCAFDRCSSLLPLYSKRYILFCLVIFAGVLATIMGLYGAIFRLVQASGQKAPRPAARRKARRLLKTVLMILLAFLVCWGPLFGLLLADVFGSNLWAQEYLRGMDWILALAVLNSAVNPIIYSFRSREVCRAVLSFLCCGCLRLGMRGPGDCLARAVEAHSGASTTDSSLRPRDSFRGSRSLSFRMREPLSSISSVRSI

[7] = NIH-3T3 fibroblast cytotoxicity, dose response, cytotoxicity control, cell-based, fluorescence, Alamar Blue, secondary assay (AID 2327); type: functional;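 also: NIH-3T3 mouse fibroblasts cultured with fluconazole at 8 µg/mL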
[8] = test system: Streptococcus sp. 'group A'; assay: Streptococcus pyogenes SK(-)GAS viability under kanamycin – luminescence, BacTiterGlo, confirmation, counter-screen for streptokinase expression inhibitor project, dose response (AID 1900); type: functional, organism-based
BJ [9] = assay: BJ-TERT fibroblast viability loss – cell-based, RAS-independent, luminescence, dose response (AID 1933); type: functional; conditions: Homo sapiens
Beta-galactosidase = Beta-galactosidase (Escherichia coli, UniProt Q8VNN2); assay: PubChem AID 485352; type: functional
Chain of Beta-galactosidase (Q8VNN2 whole entry): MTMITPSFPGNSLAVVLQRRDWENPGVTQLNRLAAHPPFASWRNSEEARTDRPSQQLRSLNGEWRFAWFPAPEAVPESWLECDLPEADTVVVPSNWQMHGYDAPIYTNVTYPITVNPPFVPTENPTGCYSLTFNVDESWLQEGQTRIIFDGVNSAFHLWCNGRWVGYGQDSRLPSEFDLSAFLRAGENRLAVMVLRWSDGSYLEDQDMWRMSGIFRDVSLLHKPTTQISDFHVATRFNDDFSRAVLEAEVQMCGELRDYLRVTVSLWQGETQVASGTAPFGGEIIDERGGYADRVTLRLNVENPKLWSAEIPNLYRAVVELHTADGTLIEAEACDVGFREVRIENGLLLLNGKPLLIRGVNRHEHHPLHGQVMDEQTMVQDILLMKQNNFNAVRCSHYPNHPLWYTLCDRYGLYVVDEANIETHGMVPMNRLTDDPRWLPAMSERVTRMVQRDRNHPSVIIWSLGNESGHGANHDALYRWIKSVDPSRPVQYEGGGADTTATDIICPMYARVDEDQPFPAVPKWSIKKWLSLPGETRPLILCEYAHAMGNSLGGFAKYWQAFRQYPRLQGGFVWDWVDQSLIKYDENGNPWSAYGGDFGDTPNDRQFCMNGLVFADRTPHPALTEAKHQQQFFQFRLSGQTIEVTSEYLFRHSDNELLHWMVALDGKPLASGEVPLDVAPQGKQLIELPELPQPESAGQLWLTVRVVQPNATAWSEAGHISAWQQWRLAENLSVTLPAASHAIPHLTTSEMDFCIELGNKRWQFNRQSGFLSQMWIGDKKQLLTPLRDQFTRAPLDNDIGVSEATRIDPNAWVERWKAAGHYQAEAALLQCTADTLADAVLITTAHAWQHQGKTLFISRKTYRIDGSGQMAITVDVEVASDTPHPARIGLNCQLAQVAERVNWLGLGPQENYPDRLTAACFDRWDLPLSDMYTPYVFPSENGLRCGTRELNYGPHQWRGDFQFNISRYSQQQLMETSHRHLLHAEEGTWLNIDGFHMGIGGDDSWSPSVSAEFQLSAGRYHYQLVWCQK

Streptokinase A = biological target: T3, Streptokinase A (Streptococcus pyogenes serotype M1, UniProt P10520); assay: viability-normalized secreted streptokinase activity reduction – plasminogen activation absorbance, OD405, dose response (AID 1914); type: functional, Streptococcus pyogenes M1 GAS;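 also: secreted streptokinase activity via plasminogen activation per viability signal from cell pellet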
T3 sequence (P10520 whole entry): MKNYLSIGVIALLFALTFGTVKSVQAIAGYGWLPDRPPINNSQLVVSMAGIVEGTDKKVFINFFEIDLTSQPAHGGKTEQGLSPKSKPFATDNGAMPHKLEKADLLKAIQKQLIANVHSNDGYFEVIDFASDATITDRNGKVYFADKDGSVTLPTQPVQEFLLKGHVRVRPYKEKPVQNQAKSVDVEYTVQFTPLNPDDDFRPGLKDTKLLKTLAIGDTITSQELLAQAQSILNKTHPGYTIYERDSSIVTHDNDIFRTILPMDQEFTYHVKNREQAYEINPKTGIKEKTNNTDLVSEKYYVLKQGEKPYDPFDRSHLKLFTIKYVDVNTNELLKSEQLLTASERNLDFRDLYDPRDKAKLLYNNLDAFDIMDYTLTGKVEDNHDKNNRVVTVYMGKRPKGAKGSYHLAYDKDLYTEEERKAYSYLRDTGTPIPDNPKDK

BJ [10] = assay: cells; type: functional, cell-based; conditions: Homo sapiens
[11] = fluconazole-exposed Candida albicans growth modulators – fluorescence, retest, confirmation (AID 2467); type: functional, cell-based
[12] = biological target: Type-1 angiotensin II receptor (Homo sapiens, UniProt P30556); assay: antagonism of angiotensin II type 1 receptor – cell-based, uHTS hits, selectivity assay for APJ receptor antagonist project, dose response (AID 463214); type: functional;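 also: antagonist potency against angiotensin II stimulated AT1 response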
Chain of Type-1 angiotensin II receptor (P30556 whole entry): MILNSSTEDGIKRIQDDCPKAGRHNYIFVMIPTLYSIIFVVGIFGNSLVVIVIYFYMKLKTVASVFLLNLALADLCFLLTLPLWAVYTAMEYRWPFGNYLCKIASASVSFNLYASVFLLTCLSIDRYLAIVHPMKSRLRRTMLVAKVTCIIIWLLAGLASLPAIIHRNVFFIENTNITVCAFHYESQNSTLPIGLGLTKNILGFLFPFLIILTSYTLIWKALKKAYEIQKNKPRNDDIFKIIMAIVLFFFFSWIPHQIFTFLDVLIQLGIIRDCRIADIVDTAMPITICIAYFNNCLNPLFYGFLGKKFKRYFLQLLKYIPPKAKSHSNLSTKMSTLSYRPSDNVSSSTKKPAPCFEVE

[13] = biological target: Serine/threonine-protein phosphatase (Candida dubliniensis (strain CD36 / CBS 7987 / NCPF 3949 / NRRLY-17841) (Yeast), UniProt B9W6M3); assay: blockers of CaCl2-induced CDRE-lacZ signaling – S. cerevisiae, luminescence, secondary, dose response (AID 2388); type: functional, cell-based;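 also: yeast reporter cells carrying a calcineurin-responsive lacZ construct stimulated with calcium chloride; luminescent beta-galactosidase reporter signal in whole cells rather than isolated phosphatase activity; potency for inhibition where a drop in reporter signal means calcineurin blockade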
BJ [14] = assay: BJ-TERT-LT-ST fibroblast viability loss – cell-based, RAS-independent, luminescence, dose response (AID 1935); type: functional; conditions: Homo sapiens;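 also: BJ fibroblasts immortalized with TERT plus LT and ST oncogenes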
[15] = DRD fibroblast viability loss – cell-based, non-viral oncogenic, luminescence, dose response (AID 1934); type: functional; conditions: Homo sapiens
Streptococcus = assay: GAS UMAA2166 growth inhibition – luminescence, BacTiterGlo, counter-screen for streptokinase expression inhibitor project, dose response (AID 1915); type: functional, organism-based;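 also: potency for reduction of bacterial viability or growth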
[16] = biological target: Intestinal-type alkaline phosphatase (Homo sapiens, UniProt P09923); assay: activation of human intestinal alkaline phosphatase – biochemical, dose response (AID 488873); type: functional
[17] = biological target: Beta-adrenergic receptor kinase 1 (Homo sapiens, UniProt P25098); assay: aptamer displacement from bead-bound GRK2 – biochemical, cherry pick 1, bead flow cytometry, dose response (AID 504500)
[18] = HEK-293T viability loss after treatment – luminescence, T-cell screen hits, cytotoxicity control for TCR NF-kB inhibitor project, dose response (AID 489026); type: functional, cell-based;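 also: cells exposed to compound about 14 hours before the viability readout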
[19] = biological target: Intestinal-type alkaline phosphatase (Mus musculus, UniProt P24822); assay: mouse intestinal alkaline phosphatase activators, dose response, biochemical, luminescence, uHTS hits (AID 488783); type: functional
Chain of Intestinal-type alkaline phosphatase (Mus musculus, UniProt P24822) (P24822 whole entry): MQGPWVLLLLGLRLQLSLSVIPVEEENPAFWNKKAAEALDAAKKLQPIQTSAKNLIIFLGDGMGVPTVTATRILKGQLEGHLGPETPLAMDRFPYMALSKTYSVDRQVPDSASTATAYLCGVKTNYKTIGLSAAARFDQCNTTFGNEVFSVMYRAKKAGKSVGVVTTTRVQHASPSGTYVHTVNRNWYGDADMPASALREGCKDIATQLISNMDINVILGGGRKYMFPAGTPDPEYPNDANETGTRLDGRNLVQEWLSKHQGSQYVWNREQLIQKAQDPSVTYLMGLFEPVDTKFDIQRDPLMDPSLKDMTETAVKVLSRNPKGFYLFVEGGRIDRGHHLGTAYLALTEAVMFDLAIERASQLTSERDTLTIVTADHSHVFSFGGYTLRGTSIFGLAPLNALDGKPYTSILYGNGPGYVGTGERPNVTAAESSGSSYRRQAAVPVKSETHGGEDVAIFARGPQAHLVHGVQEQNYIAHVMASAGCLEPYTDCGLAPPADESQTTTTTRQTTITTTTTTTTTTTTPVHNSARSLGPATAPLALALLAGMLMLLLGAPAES

[20] = biological target: T4, Alkaline phosphatase, tissue-nonspecific isozyme (Homo sapiens, UniProt P05186); assay: activation of tissue-nonspecific alkaline phosphatase – biochemical, TNAP isozyme, mouse IAP uHTS hits, selectivity assay for mouse IAP activator project, dose response (AID 488880); type: functional
T4 sequence (P05186 whole entry): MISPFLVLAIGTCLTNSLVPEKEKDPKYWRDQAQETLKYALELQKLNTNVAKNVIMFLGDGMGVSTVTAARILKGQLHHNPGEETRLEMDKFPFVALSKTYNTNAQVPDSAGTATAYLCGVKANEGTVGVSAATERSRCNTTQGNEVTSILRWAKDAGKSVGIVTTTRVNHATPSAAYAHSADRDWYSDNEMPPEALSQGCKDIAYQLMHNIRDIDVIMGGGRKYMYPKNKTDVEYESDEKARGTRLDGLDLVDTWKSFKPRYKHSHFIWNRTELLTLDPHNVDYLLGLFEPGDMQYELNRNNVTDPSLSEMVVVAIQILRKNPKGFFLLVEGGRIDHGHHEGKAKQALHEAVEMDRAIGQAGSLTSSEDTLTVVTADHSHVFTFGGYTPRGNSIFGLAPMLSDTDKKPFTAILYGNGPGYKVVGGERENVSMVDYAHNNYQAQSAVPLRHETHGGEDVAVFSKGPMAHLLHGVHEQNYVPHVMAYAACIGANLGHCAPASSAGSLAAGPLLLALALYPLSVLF

[21] = biological target: T5, Apoptotic protease-activating factor 1 (Homo sapiens, UniProt O14727); type: functional
T5 sequence (O14727 whole entry): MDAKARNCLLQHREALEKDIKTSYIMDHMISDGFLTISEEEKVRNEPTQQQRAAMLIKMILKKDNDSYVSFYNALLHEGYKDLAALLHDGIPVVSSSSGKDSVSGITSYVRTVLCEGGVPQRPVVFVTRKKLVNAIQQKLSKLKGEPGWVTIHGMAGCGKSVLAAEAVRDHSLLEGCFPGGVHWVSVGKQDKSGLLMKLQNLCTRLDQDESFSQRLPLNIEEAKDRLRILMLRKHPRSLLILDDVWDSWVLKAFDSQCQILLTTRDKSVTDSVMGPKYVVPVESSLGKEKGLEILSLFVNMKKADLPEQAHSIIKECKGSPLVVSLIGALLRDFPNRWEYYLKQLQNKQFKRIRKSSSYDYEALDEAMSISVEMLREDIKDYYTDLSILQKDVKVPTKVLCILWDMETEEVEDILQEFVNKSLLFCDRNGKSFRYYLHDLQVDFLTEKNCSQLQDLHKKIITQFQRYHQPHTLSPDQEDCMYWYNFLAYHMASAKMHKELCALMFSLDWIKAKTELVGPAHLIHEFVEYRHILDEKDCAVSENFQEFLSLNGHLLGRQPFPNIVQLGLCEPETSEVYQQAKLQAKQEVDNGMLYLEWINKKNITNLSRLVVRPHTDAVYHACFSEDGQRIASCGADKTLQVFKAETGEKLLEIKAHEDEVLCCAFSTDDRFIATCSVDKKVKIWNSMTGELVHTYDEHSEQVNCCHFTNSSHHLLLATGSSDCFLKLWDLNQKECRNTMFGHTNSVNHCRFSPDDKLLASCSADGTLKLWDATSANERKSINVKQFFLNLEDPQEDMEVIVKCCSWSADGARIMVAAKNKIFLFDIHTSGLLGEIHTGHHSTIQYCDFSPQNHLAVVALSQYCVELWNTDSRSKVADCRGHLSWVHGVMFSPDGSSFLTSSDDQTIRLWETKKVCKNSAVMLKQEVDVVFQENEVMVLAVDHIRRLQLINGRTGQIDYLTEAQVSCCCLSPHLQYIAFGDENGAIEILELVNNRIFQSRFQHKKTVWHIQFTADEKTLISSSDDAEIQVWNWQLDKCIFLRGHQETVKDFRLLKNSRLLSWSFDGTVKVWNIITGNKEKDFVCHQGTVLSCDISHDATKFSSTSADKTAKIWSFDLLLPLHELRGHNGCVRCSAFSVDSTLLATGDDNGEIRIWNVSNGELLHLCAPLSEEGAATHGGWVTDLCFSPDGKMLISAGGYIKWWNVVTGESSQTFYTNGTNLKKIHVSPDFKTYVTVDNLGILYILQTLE

BJ [22] = assay: growth inhibition of engineered Ras-driven BJ cells – cell-based, alamar blue fluorescence, cherrypicked samples, dose response (AID 2631); type: functional; conditions: Homo sapiens;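 also: confirmatory dose-response assay in RAS-dependent BJ fibroblasts engineered with TERT, LT and ST, with cytotoxicity read by fluorescence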
INS1 = assay: INS-1E survival protection against cytokine death – cell-based, luminescence, retest, dose response (AID 449756); type: functional; conditions: Rattus norvegicus;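 also: cell death triggered by IL-1 beta plus TNF-alpha plus IFN-gamma mixture; protective hits raise ATP signal compared with cytokine alone wells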
[23] = biological target: ATP-dependent molecular chaperone HSP82 (Candida albicans (strain WO-1) (Yeast), UniProt C4YTQ8); assay: steroid-induced GRE reporter decrease in yeast – S. cerevisiae, luminescence, Hsp90 inhibitor project, dose response (AID 2400); type: functional, cell-based;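 also: beta-galactosidase luminescence from glucocorticoid response element reporter as proxy for Hsp90 function; inhibitor potency where signal loss means Hsp90 inhibition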
Chain of ATP-dependent molecular chaperone HSP82 (C4YTQ8 whole entry): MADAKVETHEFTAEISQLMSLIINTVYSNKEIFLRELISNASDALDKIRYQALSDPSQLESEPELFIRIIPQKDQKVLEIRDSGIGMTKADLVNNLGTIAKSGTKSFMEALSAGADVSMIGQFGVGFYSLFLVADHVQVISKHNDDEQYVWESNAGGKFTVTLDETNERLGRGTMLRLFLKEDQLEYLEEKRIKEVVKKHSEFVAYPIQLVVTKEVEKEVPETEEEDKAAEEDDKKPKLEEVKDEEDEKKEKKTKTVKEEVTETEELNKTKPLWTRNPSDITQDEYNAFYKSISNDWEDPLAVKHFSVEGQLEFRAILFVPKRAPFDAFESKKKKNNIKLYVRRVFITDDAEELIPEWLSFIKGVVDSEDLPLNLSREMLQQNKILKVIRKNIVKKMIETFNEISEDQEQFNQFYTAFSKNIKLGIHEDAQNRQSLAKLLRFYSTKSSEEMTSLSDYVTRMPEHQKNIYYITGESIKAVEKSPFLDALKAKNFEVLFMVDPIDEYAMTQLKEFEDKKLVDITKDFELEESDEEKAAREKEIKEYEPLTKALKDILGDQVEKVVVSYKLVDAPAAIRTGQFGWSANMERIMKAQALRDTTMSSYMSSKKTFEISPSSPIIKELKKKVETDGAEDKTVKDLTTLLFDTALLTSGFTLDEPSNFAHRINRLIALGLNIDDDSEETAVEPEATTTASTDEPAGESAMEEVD

Aurora kinase B = Aurora kinase B (Homo sapiens, UniProt Q96GD4); type: functional
[24] = biological target: Serine/threonine-protein kinase BRSK1 (Homo sapiens, UniProt Q8TDC3); type: functional;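 also: measured within a kinome-wide kinase panel, with the target listed as KIAA1811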
Chain of Serine/threonine-protein kinase BRSK1 (Q8TDC3 whole entry): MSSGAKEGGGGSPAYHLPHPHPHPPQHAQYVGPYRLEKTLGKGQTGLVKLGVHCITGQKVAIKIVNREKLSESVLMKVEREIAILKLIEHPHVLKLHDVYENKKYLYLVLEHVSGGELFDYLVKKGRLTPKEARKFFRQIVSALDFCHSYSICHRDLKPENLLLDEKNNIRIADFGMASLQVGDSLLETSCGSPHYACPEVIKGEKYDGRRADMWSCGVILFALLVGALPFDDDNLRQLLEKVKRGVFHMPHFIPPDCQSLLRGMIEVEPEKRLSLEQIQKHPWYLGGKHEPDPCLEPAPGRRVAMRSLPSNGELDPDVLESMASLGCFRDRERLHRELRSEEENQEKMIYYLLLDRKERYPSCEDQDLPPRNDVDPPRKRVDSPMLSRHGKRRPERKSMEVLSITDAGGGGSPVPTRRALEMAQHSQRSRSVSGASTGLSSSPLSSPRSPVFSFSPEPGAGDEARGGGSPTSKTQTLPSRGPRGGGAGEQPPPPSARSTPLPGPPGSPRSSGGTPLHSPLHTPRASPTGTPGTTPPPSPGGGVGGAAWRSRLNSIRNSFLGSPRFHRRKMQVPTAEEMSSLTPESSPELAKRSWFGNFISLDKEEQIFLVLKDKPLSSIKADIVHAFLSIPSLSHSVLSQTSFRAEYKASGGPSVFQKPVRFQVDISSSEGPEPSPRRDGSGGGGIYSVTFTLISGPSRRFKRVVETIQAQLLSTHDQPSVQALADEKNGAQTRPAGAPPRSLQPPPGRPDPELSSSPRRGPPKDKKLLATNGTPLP

[25] = luciferase reporter signal suppression in cells – H4 neuroglioma cells, luminescence, dose response (AID 1990); type: functional, cell-based
[26] = Luminescence Cell-Based Dose Response HTS to Identify Inhibitors of 5'UTR Stem-Loop Driven Prion Protein mRNA Translation in H4 Neuroglioblastoma Cells. [Related pubchem assays: 1827 (Project Summary), 1813 (Primary HTS)]; type: functional
[27] = alpha-synuclein stem-loop luciferase translation blockers – H4 neuroglioma cells, luminescence, confirmation (AID 1988); type: functional, cell-based
HEK293 = assay: EBV LMP1 TES2 canonical NF-kB signalling blockers – cell-based, HEK293, luciferase, cherry-pick, dose response (AID 588343); type: functional; conditions: Homo sapiens

COc1cc(NC(=O)CCn2c(=S)[nH]c3ccccc3c2=O)cc(OC)c1OC
IC50 [1]: 74.1 µM (active)
IC50 [2]: 4.5 µM (active)
IC50 (Prothrombin): > 100 µM (inactive)

O=C(c1ccc([N+](=O)[O-])o1)N1CCN(c2ccc(C(F)(F)F)cn2)CC1
EC50 [3]: 1.59 µM (active)
EC50 [4]: 9.82 µM (active)

O=C(c1cc(C2CC2)on1)N(C1CCCCC1)C1CCCC1
EC50 [5]: > 50 µM (inactive)
EC50 [6]: > 50 µM (inactive)

CCN1/C(=C/c2ccc3cc(C)ccc3[n+]2CC)Sc2ccc3sccc3c21
EC50 [7]: 21.1 µM (active)
EC50 [8]: 3.29 µM (active)
EC50 (BJ [9]): 1.17 µM (inconclusive)
EC50 (Beta-galactosidase): > 40 µM (inactive)
EC50 (Streptokinase A): > 150 µM (not active)
EC50 (BJ [10]): 0.966 µM (inconclusive)
EC50 [11]: 0.046 µM (active)
IC50 [12]: > 40 µM (not active)
EC50 [13]: > 180 µM (inactive)
EC50 (BJ [14]): 1.23 µM (inconclusive)
EC50 [15]: 1.45 µM (inconclusive)
EC50 (Streptococcus): 4.44 µM (active)
EC50 [16]: 61.8 µM (active)
EC50 [17]: 0.12 µM (active)
IC50 [18]: > 80 µM (inactive)
EC50 [19]: 35.5 µM (active)
EC50 [20]: 60.6 µM (active)
IC50 [21]: > 100 µM (inactive)
EC50 (BJ [22]): 0.37 µM (inconclusive)
AC50 (INS1): < 0.195 µM (active)
EC50 [23]: 32 µM (active)

CCc1cccc2c1n(CC)c(=N)n2CC(=O)c1ccc(Br)cc1
Ki (Aurora kinase B): 2.51 µM (active)
Ki [24]: 2 µM (active)

COc1ccc(Nc2oc(COc3ccccc3OC)nc2C#N)cc1
EC50 [25]: 7.69 µM (active)
EC50 [26]: 11 µM (active)
EC50 [27]: 6.17 µM (active)
AC50 (HEK293): 6.17 µM (active)
